As a reminder, the GI50 is the concentration giving 50% growth inhibition. In general, IC50 refers to the concentration that inhibits the measured activity by half.

The subject of assay [1] is Molm-13 human acute myeloid leukemia cells. Briefly: anti-proliferative activity against leukemia cells Molm-13. It is filed as cell-based. The settings on record: Homo sapiens, MOLM-13, Molm-13 cells. The text has this: (§1) Some compounds of the present disclosure have also been tested for the antiproliferative activity against leukemia cells.
Assay [2] concerns MV4-11 human acute mononuclear leukemia cells. Briefly: anti-proliferative activity against leukemia cells MV4-11. It is filed as cell-based. The settings on record: Homo sapiens, MV4-11, MV4-11 cells; read-out: GI50 (MV-411).
Excerpt: as §1

A further assay has as its target MLL1-WDR5 PPI (Homo sapiens (Human), UniProt P61964). As to the kind of experiment: fluorescent probe assay of MLL1-WDR5 protein-protein interaction inhibition. The settings on record: fluorescent probe based on MLL1 peptide, incubation 0.5 hrs, read-out: MLL1-WDR5 PPI inhibiting activity IC50. It is filed as binding. The method, then:
In the present disclosure, a fluorescent molecular probe was constructed based on a MLL1 peptide fragment binding to WDR5, for use as a method for study on an aniline compound interfering with WDR5 protein-protein interaction, to determine an inhibition rate of the aniline compound at various concentrations, and then compute the IC50 value. Specific experimental steps: 20 μL of WDR5 protein, 20 μL of a fluorescent probe, and 20 μL of a compound of different concentration gradients were added to a 384-well plate respectively. After incubation for 0.5 hrs, the fluorescence was read on a multifunctional microplate reader at an excitation wavelength of 485 nm and an emission wavelength of 535 nm, to compute the mP value. The inhibition rate was computed as per the formula below, and then the IC50 value was computed using GraphPad software.

For assay [3], the system named is methylation level of H3K4. As to the kind of experiment: inhibition of the methylation level of H3K4 (methyltransferase activity). It is filed as biochemical.

Structures are written as SMILES.

Take `CN1CCN(c2ccc(-c3ccc(C(=O)NCCN4CCCC4)cc3)cc2Nc2ncnc(Cl)c2N)CC1` [Example 29, 3″-((5-amino-6-chloropyrimidin-4-yl)amino)-4″-(4-methylpiperazin-1-yl)-N-(2-(pyrrolidin-1-yl)ethyl)-[11,1′-biphenylyl]-4-carboxamide]: the results for the GI50 in assay [1] and in assay [2] were 18.2 µM and 16.6 µM, respectively. In addition, the IC50 on MLL1-WDR5 PPI was determined as 0.37 µM. Further, in assay [3], the “Whether the methylation level of H3K4 was inhibited” value is listed as “Yes”.

Take `CN1CCN(c2ccc(-c3ccc(C(=O)NCCCO)cc3)cc2Nc2ncnc(Cl)c2N)CC1` [Example 30, 3″-((5-amino-6-chloropyrimidin-4-yl)amino)-N-(3-hydroxylpropyl)-4″-(4-methylpiperazin-1-yl)-[1,1′-biphenyl]-zole-4-carboxamide]: the GI50 was 32.6 µM in assay [1] and 27.3 µM in assay [2]. For the same compound, at MLL1-WDR5 PPI, the IC50 worked out at 0.31 µM. The “Whether the methylation level of H3K4 was inhibited” value in assay [3] is listed as “Yes”.

As to `CC(C)NC(=O)c1ccc(-c2ccc(N3CCN(C)CC3)c(Nc3ncnc(Cl)c3N)c2)cc1` [Example 31, 3″-((5-amino-6-chloropyrimidin-4-yl)amino)-N-isopropyl-4″-(4-methylpiperazin-1-yl)-[1,1′-biphenyl]-4-carboxamide], the results for the GI50 in assay [1] and in assay [2] were 18.8 µM and 10.5 µM, respectively. Further, the IC50 at MLL1-WDR5 PPI was determined as 0.46 µM. The “Whether the methylation level of H3K4 was inhibited” value in assay [3] is “Yes”.

With `CN1CCN(c2ccc(-c3ccc(N)cc3)cc2Nc2ncnc(Cl)c2N)CC1` [Example 32, N^4-(4′-amino-4-(4-methylpiperazin-1-yl)-[1,1′-biphenyl]-3-yl)-6-chloropyrimidine-e-4,5-diamine], the concentration for 50% growth inhibition (GI50) turned out to be 27.2 µM in assay [1] and 40 µM in assay [2]. Also, the IC50 on MLL1-WDR5 PPI stood at 0.691 µM. Further, the “Whether the methylation level of H3K4 was inhibited” value in assay [3] is “Yes”.

With `CN1CCN(c2ccc(-c3ccc(NC(=O)C4CCOCC4)cc3)cc2Nc2ncnc(Cl)c2N)CC1` [Example 33, N-(3″-((5-amino-6-chloropyrimidin-4-yl)amino)-4″-(4-methylpiperazin-1-yl)-[1,1′-biphenyl]-4-yl)tetrahydro-2H-pyran-4-carboxamide], the GI50 in assay [1] came out at 22.7 µM; in assay [2], 25.9 µM. Also, at MLL1-WDR5 PPI, the IC50 amounted to 0.489 µM. The “Whether the methylation level of H3K4 was inhibited” value in assay [3] was “Yes”.

Consider `CN1CCC(C(=O)Nc2ccc(-c3ccc(N4CCN(C)CC4)c(Nc4ncnc(Cl)c4N)c3)cc2)CC1` [Example 34, N-(3″-((5-amino-6-chloropyrimidin-4-yl)amino)-4″-(4-methylpiperazin-1-yl)-[1,1′-biphenyl]-4-yl)-1-methylpiperidin-4-carboxamide], for which the concentration for 50% growth inhibition (GI50) in assay [1] is 20.8 µM; in assay [2] it was 23.2 µM. In addition, the 50% inhibitory concentration (IC50) on MLL1-WDR5 PPI amounted to 0.287 µM. For the same compound, in assay [3], the “Whether the methylation level of H3K4 was inhibited” value was “Yes”.

Take `CN1CCN(c2ccc(-c3ccc(NC(=O)C4CCCCC4)cc3)cc2Nc2ncnc(Cl)c2N)CC1` [Example 35, N-(3″-((5-amino-6-chloropyrimidin-4-yl)amino)-4″-(4-methylpiperazin-1-yl)-[1,1′-biphenyl]-4-yl)cyclohexanecarboxamide]: the results for the GI50 in assay [1] and in assay [2] were 6.16 µM and 2.07 µM, respectively. Also, the IC50 on MLL1-WDR5 PPI worked out at 0.372 µM. For the same compound, the “Whether the methylation level of H3K4 was inhibited” value in assay [3] was “Yes”.

For the compound `CCCC(=O)Nc1ccc(-c2ccc(N3CCN(C)CC3)c(Nc3ncnc(Cl)c3N)c2)cc1` [Example 36, N-(3″-((5-amino-6-chloropyrimidin-4-yl)amino)-4″-(4-methylpiperazin-1-yl)-[1,1′-biphenyl]-4-yl)butyramide], the GI50 in assay [1] was 12.5 µM; in assay [2], 9.32 µM. Besides, on MLL1-WDR5 PPI, the IC50 turned out to be 0.261 µM. The “Whether the methylation level of H3K4 was inhibited” value in assay [3] is “Yes”.

`CN1CCN(C(=O)c2ccc(-c3ccc(N4CCN(C)CC4)c(Nc4ncnc(Cl)c4N)c3)c(F)c2)CC1` [Example 38, (3″-((5-amino-6-chloropyrimidin-4-yl)amino)-2-fluoro-4″-(4-methylpiperazin-1-yl)-[1,1′-biphenyl]-4-yl)(4-methylpiperazin-1-yl)methanone]: the 50% growth inhibitory concentration (GI50) in assay [1] came to 26 µM; in assay [2] it was 20.8 µM. The IC50 on MLL1-WDR5 PPI was 0.652 µM. Further, the “Whether the methylation level of H3K4 was inhibited” value in assay [3] is on record as “Yes”.

Regarding `CN1CCN(c2ccc(-c3cccc(N)c3)cc2Nc2ncnc(Cl)c2N)CC1` [Example 39, N-(3′-amino-4-(4-methylpiperazin-1-yl)-[1,1′-biphenyl]-3-yl)-6-chloropyrimidine-4,5-diamine], the concentration for 50% growth inhibition (GI50) was 28.6 µM in assay [1] and 32.2 µM in assay [2]. For the same compound, the IC50 on MLL1-WDR5 PPI was found to be 0.675 µM. In addition, the “Whether the methylation level of H3K4 was inhibited” value in assay [3] is listed as “Yes”.

Regarding `CN1CCN(c2ccc(-c3cccc(NC(=O)C4CCOCC4)c3)cc2Nc2ncnc(Cl)c2N)CC1` [Example 40, N-(3″-((5-amino-6-chloropyrimidin-4-yl)amino)-4″-(4-methylpiperazin-1-yl)-[1, 1′-biphenyl]-3-yl)tetrahydro-2H-pyran-4-carboxamide], the concentration for 50% growth inhibition (GI50) in assay [1] stood at 26.2 µM; in assay [2] it was 28.4 µM. Also, the IC50 at MLL1-WDR5 PPI was determined as 0.328 µM. For the same compound, in assay [3], the “Whether the methylation level of H3K4 was inhibited” value is on record as “Yes”.

Take `CN1CCC(C(=O)Nc2cccc(-c3ccc(N4CCN(C)CC4)c(Nc4ncnc(Cl)c4N)c3)c2)CC1` [Example 41, N-(3″-((5-amino-6-chloropyrimidin-4-yl)amino)-4″-(4-methylpiperazin-1-yl)-[1,1′-biphenyl]-3-yl)-1-methylpiperidin-4-carboxamide]: the GI50 in assay [1] is 24.4 µM; in assay [2], 25.8 µM. Also, the half-maximal inhibitory concentration (IC50) on MLL1-WDR5 PPI is 0.329 µM. For the same compound, the “Whether the methylation level of H3K4 was inhibited” value in assay [3] is “Yes”.

As for `COC(=O)c1cn(-c2ccc(N3CCN(C)CC3)c(Nc3ncnc(Cl)c3N)c2)nn1` [Example 46, Methyl 1-(3-((5-amino-6-chloropyrimidin-4-yl)amino)-4-(4-methylpiperazin-1-yl)phenyl)-1H-1,2,3-triazole-4-carboxylate], the GI50 in assay [1] is 11.7 µM; in assay [2] it was 22.4 µM. For the same compound, on MLL1-WDR5 PPI, the IC50 was found to be 0.865 µM. Further, the “Whether the methylation level of H3K4 was inhibited” value in assay [3] is recorded as “Yes”.

Turning to `CN1CCN(c2ccc(-n3cc(C(=O)N4CCOCC4)nn3)cc2Nc2ncnc(Cl)c2N)CC1` [Example 47, (1-(3-((5-amino-6-chloropyrimidin-4-yl)amino)-4-(4-methylpiperazin-1-yl)phenyl)-1H-1,2,3-triazole-4-yl)(morpholino)methanone], the GI50 in assay [1] was found to be 14.7 µM; in assay [2], 10.6 µM. Further, the 50% inhibitory concentration (IC50) on MLL1-WDR5 PPI is 0.24 µM. Also, the “Whether the methylation level of H3K4 was inhibited” value in assay [3] was “Yes”.

Regarding `CN1CCN(c2ccc(-c3ccc(C(=O)N(C)C)cc3)c(F)c2Nc2ncnc(Cl)c2N)CC1` [Example 54, 3″-((5-amino-6-chloropyrimidin-4-yl)amino)-2′-fluoro-N,N-dimethyl-4″-(4-methylpiperazin-1-yl)-[1,1′-biphenyl]-4-carboxamide], the GI50 in assay [1] was determined as 16.2 µM; in assay [2], 17.5 µM. Also, the concentration for half-maximal inhibition (IC50) at MLL1-WDR5 PPI came out at 0.24 µM. Also, the “Whether the methylation level of H3K4 was inhibited” value in assay [3] is “Yes”.

In the case of `CN1CCN(c2ccc(-c3ccc(C(=O)N4CCOCC4)cc3)c(F)c2Nc2ncnc(Cl)c2N)CC1` [Example 55, (3″-((5-amino-6-chloropyrimidin-4-yl)amino)-2′-fluoro-4″-(4-methylpiperazin-1-yl)-[1,1′-biphenyl]-4-yl)(morpholino)methanone], the values for the GI50 in assay [1] and in assay [2] were 28.9 µM and 22.5 µM, respectively. Besides, the IC50 on MLL1-WDR5 PPI came to 0.117 µM. Besides, the “Whether the methylation level of H3K4 was inhibited” value in assay [3] was “Yes”.

These data come from patent publication US12453731B2, “Aniline-based WDR5 protein-protein interaction inhibitor, and preparation method and use thereof” (CHINA PHARMACEUTICAL UNIVERSITY, priority 2019, dated 2025).
